Experimental data taken from US20110097274A1, “Carbon-11 and fluorine-18 labeled radioligands for positron emission tomography (PET) imaging for the brain serotonin transporters” (priority 2002, published 2011).
Where a name gives a salt, the structure may show the parent alone. Read-outs that look alike come from different tables or passages of the source.

Assays:
[1] = In vitro logP measurement, octanol/phosphate buffer pH 7.4; format: physicochemical; details: octanol/phosphate buffer pH 7.4, radiolabeled compound, mean ± SD, n = 8
Experimental: In vitro logP measurement: Octanol/water partition coefficient of the radiolabeled compounds were measured at Columbia University, using the method of Wilson et al. (2001), with some modifications. Briefly, 300 to 500 μCi of radioligand in EtOH was added to a separatory funnel containing octanol (20 mL) and phosphate buffer (20 mL, pH 7.4). The mixture was shaken mechanically for 3 minutes and the layers were separated. The octanol layer (15 mL) was transferred to a second separatory funnel containing 15 mL of the phosphate buffer (pH 7.4). The mixture was shaken mechanically for 3 minutes and the layers were separated. This second octanol layer was then partitioned into four test tubes (2 mL each) and the phosphate buffer (2 mL each) added. The test tubes were vortexed for 10 minutes, and then centrifuged for 10 minutes at 1000 rpm to separate the layers. The octanol and aqueous phases (1.0 mL each) were transferred into counting tubes and counted with a gamma counter (Wallac 1480 Wizard 3M Automatic Gamma Counter, Perkin-Elmer, Boston, Mass.). The radioactivity counts were decay-corrected and the partition coefficient calculated as P=counts in octanol/counts in buffer. Eight separate measurements were preformed for each tracer.

[2] = target: T1, serotonin transporter (SERT) (Rattus norvegicus, UniProt P31652); test: In vitro binding affinity for SERT, radioligand [^3H]paroxetine (Table 1); parameters: species or system rat or human (cloned)
T1 construct: membranes prepared from either the rat cortical tissues or cells expressed with cloned-human transporters; from tissue; host or cells: rat cortical tissue membranes (inferred; the alternative is cells expressing cloned human SERT)
Experimental: (§1) Selected compounds were assayed in vitro for their binding affinity for the dopamine transporter (DAT), serotonin transporter (SERT), and norepinephrine transporter (NET) using membranes prepared from either the rat cortical tissues or cells expressed with cloned-human transporters and radioligands. Radioligands used were [^3H]paroxetine (SERT), [^3H]nisoxetine (NET), and [^3H]GBR12935 (DAT).

[3] = target: T2, dopamine transporter (DAT) (Homo sapiens, UniProt Q01959); test: In vitro binding affinity for DAT, radioligand [^3H]GBR12935 (Table 1); parameters: species or system rat or human (cloned)
T2 construct: host or cells: either rat cortical tissue or cells expressing the cloned human transporter
Experimental: as §1

[4] = target: T3, norepinephrine transporter (NET) (Homo sapiens, UniProt P23975); test: In vitro binding affinity for NET, radioligand [^3H]nisoxetine (Table 1); parameters: species or system rat or human (cloned)
T3 construct: host or cells: either rat cortical tissue or cells expressing the cloned human transporter
Experimental: as §1

SERT [5] = target: T4, SERT (Rattus norvegicus, UniProt P31652); parameters: host or cells: rat brain membranes (for ADAM/IDAM); details: literature; [^125I] ligands in rat brain membranes; cited from earlier work
SERT [6] = target: T4, SERT; test: In vitro binding assay on rat frontal cortex homogenates using [^3H]paroxetine; parameters: from tissue; host or cells: frontal cortex of male Sprague-Dawley rats, washed membrane homogenate; details: mean ± SD, n = 3
Experimental: In vitro binding assays: Measurement of the inhibition constants (Ki) of the labeled compounds in FIG. 1 on rat frontal cortex homogenates were performed at Columbia University using [^3H]paroxetine, as previously described (Laruelle et al., 1988b). Briefly, male Sprague-Dawley rats (250-300 g) were killed by decapitation. Dissection of the brain was carried out on ice and samples of the frontal cortex were stored at −40° C. until binding assay. After thawing, samples were homogenized in 10 volumes of buffer (50 mM Tris-HCl, pH 7.4, 120 mM NaCl and 5 mM KCl). The homogenates were centrifuged at 10,000 rpm for 10 minutes. Pellets were resuspended in 10 volumes of buffer, incubated at 37° C. for 10 minutes, and centrifuged again. This procedure was then repeated a third time.
For the binding assay, membranes were suspended in buffer at a final protein concentration of 5 mg/mL. Unlabelled drugs were dissolved in dimethyl sulfoxide (DMSO) in borosilicate glass tubes to yield a 1 mM stock solution, from which subsequent serial dilutions were performed with the buffer. Aliquots of tissue preparation were incubated with [^3H]paroxetine (0.1 nM) at 22° C. or 37° C. for 60 minutes in the absence or presence of unlabelled drug (10^−5 to 10^−12 M) to yield a final volume of 0.5 mL (borosilicate glass tubes). Nonspecific binding was defined by incubation with 10 μM of citalopram. Each concentration was performed in triplicates. After incubation, the mixture was rapidly filtered through Whatman GF/B glass fiber filters using a 48-channel cell harvester (Brandel, Gaithersburg, Md.). The filters were washed 3 times with 4 mL each of ice cold buffer, placed in vials with 4 mL Ultima Gold solvent (Packard Instrument Co., Downers Grove, Ill.), and counted the following day for radioactivity in a liquid scintillation counter (Tricarb 1500, Packard Instrument Co., Downers Grove, Ill.). This experiment was performed three times at 22° C. and 37° C., on three different days. Ki values were derived using GraphPad Prism software (San Diego, Calif.).

[7] = humans, literature; cited from earlier work
SERT [8] = details: literature; cited from earlier work
[9] = literature (Laruelle et al., 1994a); cited from earlier work
[10] = 22° C., read-out: Ki for SERT at 22° C.
[11] = 37° C., read-out: Ki for SERT at 37° C.

T2 sequence (Q01959 whole entry, species assumed): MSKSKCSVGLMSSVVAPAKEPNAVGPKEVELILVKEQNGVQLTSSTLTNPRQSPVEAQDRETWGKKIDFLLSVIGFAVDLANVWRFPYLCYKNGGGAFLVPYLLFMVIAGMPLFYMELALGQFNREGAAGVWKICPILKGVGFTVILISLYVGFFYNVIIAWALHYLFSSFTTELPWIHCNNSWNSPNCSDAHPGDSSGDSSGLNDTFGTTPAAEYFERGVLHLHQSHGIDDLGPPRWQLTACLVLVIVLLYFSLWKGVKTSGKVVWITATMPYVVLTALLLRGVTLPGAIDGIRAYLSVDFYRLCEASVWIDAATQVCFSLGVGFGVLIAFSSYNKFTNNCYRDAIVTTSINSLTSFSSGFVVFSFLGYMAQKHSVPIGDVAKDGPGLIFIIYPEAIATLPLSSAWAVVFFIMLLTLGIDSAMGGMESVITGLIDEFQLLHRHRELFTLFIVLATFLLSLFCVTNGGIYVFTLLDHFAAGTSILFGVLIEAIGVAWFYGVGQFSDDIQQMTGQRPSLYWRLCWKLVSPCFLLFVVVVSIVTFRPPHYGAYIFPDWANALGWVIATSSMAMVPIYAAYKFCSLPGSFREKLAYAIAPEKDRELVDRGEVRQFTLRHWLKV
T4 sequence (P31652 whole entry): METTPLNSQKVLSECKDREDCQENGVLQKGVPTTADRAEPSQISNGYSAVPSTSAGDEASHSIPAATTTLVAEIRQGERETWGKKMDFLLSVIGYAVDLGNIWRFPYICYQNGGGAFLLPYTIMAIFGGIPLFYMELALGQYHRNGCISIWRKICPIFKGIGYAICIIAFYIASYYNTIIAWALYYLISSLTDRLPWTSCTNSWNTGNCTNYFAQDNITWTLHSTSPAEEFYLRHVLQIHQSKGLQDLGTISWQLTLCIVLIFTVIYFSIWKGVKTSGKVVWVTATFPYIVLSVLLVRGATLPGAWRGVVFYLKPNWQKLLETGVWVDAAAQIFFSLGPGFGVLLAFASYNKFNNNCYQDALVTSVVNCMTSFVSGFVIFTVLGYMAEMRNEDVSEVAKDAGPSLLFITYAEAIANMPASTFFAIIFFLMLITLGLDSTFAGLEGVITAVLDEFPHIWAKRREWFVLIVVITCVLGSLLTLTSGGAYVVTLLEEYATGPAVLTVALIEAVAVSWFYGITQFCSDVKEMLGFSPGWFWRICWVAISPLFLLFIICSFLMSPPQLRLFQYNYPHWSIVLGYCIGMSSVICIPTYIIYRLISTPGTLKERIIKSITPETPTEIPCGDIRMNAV
T1 sequence (P31652 whole entry): as above
T3 sequence (P23975 whole entry, species assumed): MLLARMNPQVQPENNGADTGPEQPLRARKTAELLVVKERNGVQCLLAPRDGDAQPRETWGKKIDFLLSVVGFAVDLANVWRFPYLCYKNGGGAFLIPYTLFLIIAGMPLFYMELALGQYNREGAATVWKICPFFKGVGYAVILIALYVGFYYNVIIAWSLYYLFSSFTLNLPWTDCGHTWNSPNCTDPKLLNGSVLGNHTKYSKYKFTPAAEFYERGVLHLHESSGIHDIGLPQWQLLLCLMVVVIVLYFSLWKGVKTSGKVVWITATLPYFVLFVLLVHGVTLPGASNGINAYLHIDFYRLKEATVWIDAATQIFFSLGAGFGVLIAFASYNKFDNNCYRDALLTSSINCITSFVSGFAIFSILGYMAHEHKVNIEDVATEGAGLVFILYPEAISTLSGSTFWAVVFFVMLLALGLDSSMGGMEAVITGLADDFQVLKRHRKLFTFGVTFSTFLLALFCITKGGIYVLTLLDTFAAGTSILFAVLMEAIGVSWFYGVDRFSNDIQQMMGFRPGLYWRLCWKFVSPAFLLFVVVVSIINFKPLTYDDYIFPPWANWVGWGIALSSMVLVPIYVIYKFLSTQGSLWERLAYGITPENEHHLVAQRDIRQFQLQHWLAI

CN(C)Cc1ccccc1Sc1ccc(F)cc1N (as salt: tartrate) [AFA, 2-(2-(Dimethylaminomethyl)phenylthio)-5-fluorophenylamine]
melting point: 158 to 159 °C

CN(C)Cc1ccccc1Sc1ccc(CF)cc1N (as salt: tartrate) [AFM, 2-(2-(Dimethylaminomethyl)phenylthio)-5-fluoromethylphenylamine]
melting point: 142 to 143 °C

CNCc1ccccc1Sc1ccc(C)cc1N (as salt: tartrate) [Example 39, 5-Methyl-2-(2-(methylaminomethyl)phenylthio)phenylamine]
melting point: 164 to 166 °C

CNCc1ccccc1Sc1ccc(F)cc1N (as salt: tartrate) [Example 41, 5-Fluoro-2-(2-(methylaminomethyl)phenylthio)phenylamine]
melting point: 106 to 108 °C

CSc1ccc(C2CN3CCCC3c3ccccc32)cc1 (single isomer, unassigned; (+)) [McN 5652, (+)-6β-(4-methylthiophenyl)-1,2,3,5,6α,10β-hexahydropyrrolo[2,1-a]isoquinoline]
logP [1]: 2.51 ± 0.03

CN(C)Cc1ccccc1Sc1ccc(I)cc1N [ADAM, 2-{2-[(dimethylamino)methyl]phenylthio}-5-iodophenylamine]
Ki [2]: 0.32 nM
Ki [3]: > 10000 nM
Ki [4]: 1350 nM
logP [1]: 3.31 ± 0.13
Ki (SERT [5]): 0.15 nM
Ki (SERT [6]; [10]): 0.32 ± 0.11 nM
Ki (SERT [6]; [11]): 0.4 ± 0.16 nM

CN(C)Cc1ccccc1Sc1ccc(CF)cc1N [AFM, 2-(2-(Dimethylaminomethyl)phenylthio)-5-fluoromethylphenylamine]
Ki [2]: 0.23 nM
Ki [3]: > 10000 nM
Ki [4]: 664 nM
logP [1]: 2.44 ± 0.03
Ki (SERT [6]; [10]): 0.23 ± 0.04 nM
Ki (SERT [6]; [11]): 0.42 ± 0.12 nM

CN(C)Cc1ccccc1Sc1ccc(Br)cc1N [DAPA, 5-bromo-2-{2[(dimethylamino)methyl]phenylthio}phenylamine]
logP [1]: 3.06 ± 0.12
Ki (SERT [6]; [10]): 0.38 ± 0.24 nM
Ki (SERT [6]; [11]): 0.33 ± 0.13 nM

CN(C)Cc1ccccc1Sc1ccc(C#N)cc1N [DASB, 3-amino-4-{2-[(dimethylamino)methyl]phenylthio}benzonitrile]
Ki ([2]; read-out: Ki SERT): 0.87 nM
Ki [3]: > 10000 nM
logP [1]: 2.38 ± 0.03
Ki (SERT [6]; [10]): 0.87 ± 0.41 nM
Ki (SERT [6]; [11]): 1.77 ± 0.25 nM

COc1c(O[11CH3])cccc1[C@H](O)C1CCN(CCc2ccc(F)cc2)CC1 [[^11C]MDL 100907]
VT CER (nonspecific distribution volume) [7]: 18 ± 4 mL/g

CN(C)Cc1ccccc1Sc1ccc(I)cc1CO [[^123I]IDAM, 5-iodo-2-((2-((dimethylamino)methyl)phenyl)thio)benzyl alcohol]
Kd (SERT [8]): 0.25 nM

COC(=O)C1C(c2ccc([123I])cc2)CC2CCC1N2C (stereo not drawn) [[^123I]β-CIT, [^123I]2β-carbomethoxy-3β-(4-iodophenyl)tropane]
Plasma free fraction [9]: 40±5%
VT CER (nonspecific distribution volume) [7]: 28 ± 3 mL/g

CN(C)Cc1ccccc1Sc1ccc([125I])cc1N [[^125I]ADAM]
Ki (SERT [5]): 0.15 nM

CN(C)Cc1ccccc1Sc1ccc(I)cc1CO [[^125I]IDAM]
Ki (SERT [5]): 0.25 nM
